This is an account of results in US20230312550A1, “N-(2-(4-CYANOTHIAZOLIDIN-3-YL)-2-OXOETHYL)-QUINOLINE-4-CARBOXAMIDES” (AstraZeneca AB, priority 2020, published 2023).

Values after ≈ are worked out from the molar mass of the structure shown. A value given as a limit tells only on which side of the number the result lay.

In one data set the target is hFAP (M39-A757) (Homo sapiens (Human), UniProt Q12884). The data set can be described thus: hFAP binding assay (surface plasmon resonance). The following applies: SPR, 20° C.; for hFAP Binding assay k(off) / hFAP Binding assay k(on): single cycle kinetics; for Kd: n = 1 or geometric mean n = 2-4.
Data set [1] has as its target Prolyl endopeptidase, Prolyl Oligopeptidase (hPREP) (Homo sapiens (Human), UniProt P48147). Kind of data set: hPrep inhibition assay. It counts as biochemical. The following applies: hPREP 0.6 nM, Z-Gly-Pro-amino-methylcoumarin 50 μM; read-out: PREP IC50. The essentials: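 Recombinant human PREP at 0.6 nM final with Z-Gly-Pro-AMC substrate at 50 μM final in Tris-HCl pH 7.5, NaCl, Triton X-100, glutathione; 15 min rt preincubation then 20 min rt reaction in dark. AMC fluorescence (ex 340/em 460 nm); IC50 from one-site dose-response fit of % inhibition.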

The nature of data set [2]: in vitro. The following applies: human, microsomes, HLM CLint.
Experimental: Metabolic stability in HLM was measured as described in J Comput Aided Mol Des 2015, 29, 795.
In data set [3] the target is human Fibroblast activation protein alpha (hFAP) (Homo sapiens (Human), UniProt Q12884). Kind of data set: hFAP inhibition assay (tight binders). Note: hFAP 2.4 pM. As to conditions: Ala-Pro-AMC 20 μM, n = 1 or geometric mean n = 2-6. It counts as biochemical. The procedure: The plates were read on a PHERAstar® reader with excitation 340 nm and emission 460 nm. Data were analyzed in Genedata Screener®. IC50 values were determined by plotting % inhibition versus log compound concentration and using a one site dose response model.

Data set [4] in a line: in vitro. The following applies: human, Caco-2.
Experimental: Caco-2 cell permeability was measured as described in Mol Pharm 2017, 14, 1601.
A short description of the next data set: physchem. As to conditions: kinetic from dmso stock.
The conditions of data set [5]: rat, hepatocytes.
The target of data set [6] is human dipeptidylpeptidase 9 (hDPP9) (Homo sapiens (Human), UniProt Q86TI2). The data set can be described thus: hDPP9 inhibition assay. Format: biochemical. The following applies: hDPP9 0.4 nM, Ala-Pro-amino-methylcoumarin 5 μM, n = 1. The procedure:
Compounds were tested in a biochemical inhibition assay using human dipeptidylpeptidase 9 (hDPP9) enzyme at 0.4 nM FAC (BPS Bioscience, #80090) and the substrate Ala-Pro-amino-methylcoumarin (BPS Bioscience #80305) at 5 μM FAC. The enzymatic reactions were conducted in duplicate at rt for 30 min in 50 μL DPP assay buffer (BPS Bioscience, #80300). […] The plates were read on a Tecan Infinite M1000 microplate reader with excitation 340 nm and emission 460 nm. Data were analyzed in Graph Pad Prism. IC50 values were determined by plotting % inhibition versus log compound concentration and using a one site dose response model. Raw data signals were normalized using 1% DMSO as 0% control and no enzyme as 100% inhibitor control.

For data set [7], the target named is FAP (Mus musculus (Mouse), UniProt P97321). The data set can be described thus: FAP plasma inhibition assay, mouse plasma. Format: biochemical. The following applies: mouse plasma diluted 1:67, Ala-Pro-AMC 75 μM. The essentials:
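K2EDTA plasma served as enzyme source, human diluted 1:40 and mouse 1:67, in PBS with 0.1% BSA. Compounds ran as a 10-point 3-fold series from 500 nM final, in duplicate, 40 min at rt in the dark, with fluorescence read against a pre-substrate blank. IC50 came from % inhibition versus log concentration.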

Data set [8] concerns the target human dipeptidylpeptidase 7 (hDPP7) (Homo sapiens (Human), UniProt Q9UHL4). Kind of data set: hDPP7 inhibition assay. Format: biochemical. The following applies: hDPP7 15 nM, Ala-Pro-amino-methylcoumarin 5 μM, n = 1. The procedure: Compounds were tested in a biochemical inhibition assay using human dipeptidylpeptidase 7 (hDPP7) enzyme at 15 nM FAC (BPS Bioscience, #80070) and the substrate Ala-Pro-amino-methylcoumarin (BPS Bioscience, #80305) at 5 μM FAC. The enzymatic reactions were conducted in duplicate at rt for 30 min in 50 μL DPP assay buffer (BPS Bioscience, #80300). Compound solutions (in DMSO) at 10 CR, 3 fold dilution series were prepared in assay buffer ten-fold higher than the final concentration, and 5 μL of the dilution was added to a 50 μL reaction so that the highest compound concentration was 100 μM FAC and the concentration of DMSO was 1% in all wells. The plates were read on a Tecan Infinite M1000 microplate reader with excitation 340 nm and emission 460 nm. Data were analyzed in Graph Pad Prism. IC50 values were determined by plotting % inhibition versus log compound concentration and using a one site dose response model. Raw data signals were normalized using 1% DMSO as 0% control and no enzyme as 100% inhibitor control.

The target in data set [9] is human dipeptidylpeptidase 8 (hDPP8) (Homo sapiens (Human), UniProt Q6V1X1). Kind of data set: hDPP8 inhibition assay. The following applies: Ala-Pro-amino-methylcoumarin 5 μM, n = 1. It counts as biochemical. The procedure:
The enzymatic reactions were conducted in duplicate at rt for 30 min in 50 μL DPP assay buffer (BPS Bioscience, #80300). […] The plates were read on a Tecan Infinite M1000 microplate reader with excitation 340 nm and emission 460 nm. Data were analyzed in Graph Pad Prism. IC50 values were determined by plotting % inhibition versus log compound concentration and using a one site dose response model. Raw data signals were normalized using 1% DMSO as 0% control and no enzyme as 100% inhibitor control.

In data set [10] the target is FAP (Homo sapiens (Human), UniProt Q12884). Kind of data set: hFAP inhibition assay. As to conditions: hFAP […], Ala-Pro-AMC 20 μM; n = 1 or geometric mean n = 2-3. Format: biochemical. Summed up: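 Human FAP (0.48 nM) in 100 mM Tris HCl, 100 mM NaCl, 0.05% Chaps, pH 7.4 was preincubated 15 min at rt in the dark with compounds (10-point, 3-fold series from 50 μM). Substrate was added from a 40 μM solution, then 30 min at rt. Fluorescence read at ex 340/em 460 nm; IC50 from one-site dose-response fit of % inhibition.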

Data set [11] deals with Fibroblast Activation Protein alpha (FAP) (Mus musculus (Mouse), UniProt P97321). Kind of data set: in vivo.
Sequence of Fibroblast Activation Protein alpha (FAP) (P97321 24-761): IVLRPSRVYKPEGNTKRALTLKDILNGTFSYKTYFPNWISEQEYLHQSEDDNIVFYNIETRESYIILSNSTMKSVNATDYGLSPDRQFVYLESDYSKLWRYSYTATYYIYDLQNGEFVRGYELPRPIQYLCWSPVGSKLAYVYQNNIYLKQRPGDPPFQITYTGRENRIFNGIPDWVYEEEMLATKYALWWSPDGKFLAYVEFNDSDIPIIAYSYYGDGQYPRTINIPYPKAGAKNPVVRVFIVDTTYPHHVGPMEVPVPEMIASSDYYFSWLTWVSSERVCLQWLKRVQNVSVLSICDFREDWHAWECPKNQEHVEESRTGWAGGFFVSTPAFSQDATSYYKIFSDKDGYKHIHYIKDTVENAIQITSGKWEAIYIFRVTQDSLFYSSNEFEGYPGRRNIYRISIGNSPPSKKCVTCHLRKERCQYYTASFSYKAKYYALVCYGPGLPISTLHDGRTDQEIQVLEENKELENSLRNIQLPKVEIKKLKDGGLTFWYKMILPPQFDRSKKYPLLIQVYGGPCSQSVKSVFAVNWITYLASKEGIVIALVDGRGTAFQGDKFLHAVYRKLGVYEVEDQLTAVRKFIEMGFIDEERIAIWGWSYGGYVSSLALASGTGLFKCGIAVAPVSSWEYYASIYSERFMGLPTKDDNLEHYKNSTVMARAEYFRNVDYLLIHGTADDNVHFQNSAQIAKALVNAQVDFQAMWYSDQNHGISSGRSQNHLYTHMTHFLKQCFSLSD
Experimental: The effect of test compound on FAP enzyme activity in mouse plasma was evaluated in an enzymatic assay using the Fibroblast Activation Protein alpha (FAP) specific fluorogenic substrate dipeptide-Coumarin, Ala-Pro-AMC, (ARI-3144).
Male C57Bl/6 mice (Charles River, Germany), 8 weeks of age, were single housed in a temperature-controlled room with a 12-hour light/dark cycle (06:00-18:00 light). The mice had ad libitum access to water and rodent chow diet (R70, Lactamin, Kimstad, Sweden), and were acclimated for 5 days upon arrival. After acclimation, all mice received a single oral dose of test compound (3 or 10 mg/kg). Blood samples for whole blood compound exposure measurements were taken at 0.25, 0.5, 1, 2, 4, 8 and 24 h post oral dosing. Samples were collected in EDTA capillary tubes (20 μL, K2E, REF 19.447) and were transferred to a 96-deep well plate (NUNC, Thermo Discher Scientific) and stored at −20° C. until further analyses were performed. Blood samples for plasma FAP enzyme activity measurements were taken at 0, 0.25, 0.5, 1, 2, 8 and 24 h post dosing. 25 μL of whole blood was collected in EDTA Microvette® CB 300 (K2E, REF 16.444.100) tubes, and were centrifuged at 4,000×g for 5 min. 10 μL of plasma was then transferred to PCR tubes and stored at −20° C. until further analysis was performed. All blood samples were taken by vena saphena puncture.
Recombinant human FAP (PB-17-1837, construct PL-17-0278, cd33-FAP (27-757)-6His, Mw85926 Da) was used as a standard for this assay. […] The plates were read on a Beckman Paradigm reader with excitation 360 nm and emission 465 nm. Fluorescence measurements were performed with kinetic read every 5 minutes for 60 min at room temperature. Data were analyzed in Excel (IDBS XLfit Add-In) using a Linear Regression (y=k*x+m) model to prepare a human recombinant FAP standard curve.
On the day of the assay, plasma was diluted (1:2) to 20 μL volume in buffer (PBS, 0.1% BSA) and 7.5 μL was transferred to the assay plate (384-well black, fluotrack PS, Greiner 781076). Ala-Pro-AMC (stock solution in 10 mM DMSO) was diluted in buffer (PBS, 0.1% BSA) to 150 μM concentration (180 μL stock solution to 12 mL buffer) and 7.5 μL added to the assay plate followed by a pipetting mix. The plates were read on a Beckman Paradigm reader with excitation 360 nm and emission 465 nm. Fluorescence measurements were performed with kinetic read every 5 minutes for 60 minutes at room temperature. As noted above, FAP cleaves Ala-Pro-AMC to release free AMC which is measured as a fluorescent signal.
The in vivo potency IC50 of each test compound was then estimated by relating the plasma exposure C of the compound to target engagement E in plasma using the following equation:
where E0 is the FAP baseline in plasma prior to dosing and Imax is the maximum effect of the compound. Data from each target engagement experiment were considered separately and therefore slightly different estimates of FAP baseline for each compound were obtained. […] The parameter estimation was done in Phoenix WinNonlin Certara build 8.1.0.3530 with the algorithm ‘Naïve pooled’ as parameter estimation method.

Sequence of Prolyl endopeptidase, Prolyl Oligopeptidase (hPREP) (P48147 whole entry): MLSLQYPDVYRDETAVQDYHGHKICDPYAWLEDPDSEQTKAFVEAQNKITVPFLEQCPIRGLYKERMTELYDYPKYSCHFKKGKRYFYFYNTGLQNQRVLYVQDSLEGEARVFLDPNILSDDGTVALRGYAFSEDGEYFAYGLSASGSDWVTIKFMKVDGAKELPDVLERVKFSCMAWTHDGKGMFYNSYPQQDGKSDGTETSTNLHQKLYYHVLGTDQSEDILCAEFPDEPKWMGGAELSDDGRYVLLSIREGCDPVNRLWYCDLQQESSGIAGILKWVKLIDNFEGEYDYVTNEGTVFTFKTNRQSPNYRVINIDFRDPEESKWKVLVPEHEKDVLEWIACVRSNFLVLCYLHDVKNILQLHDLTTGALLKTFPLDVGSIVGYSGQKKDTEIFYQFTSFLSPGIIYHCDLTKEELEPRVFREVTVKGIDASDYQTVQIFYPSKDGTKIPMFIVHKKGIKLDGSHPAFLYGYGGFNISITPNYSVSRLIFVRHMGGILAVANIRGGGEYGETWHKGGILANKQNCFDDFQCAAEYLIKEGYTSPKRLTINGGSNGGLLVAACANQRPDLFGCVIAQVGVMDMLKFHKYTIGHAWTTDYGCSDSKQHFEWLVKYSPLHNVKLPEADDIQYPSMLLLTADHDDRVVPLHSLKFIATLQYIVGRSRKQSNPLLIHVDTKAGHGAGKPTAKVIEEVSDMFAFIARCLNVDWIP
Sequence of human Fibroblast activation protein alpha (hFAP) (Q12884 38-760): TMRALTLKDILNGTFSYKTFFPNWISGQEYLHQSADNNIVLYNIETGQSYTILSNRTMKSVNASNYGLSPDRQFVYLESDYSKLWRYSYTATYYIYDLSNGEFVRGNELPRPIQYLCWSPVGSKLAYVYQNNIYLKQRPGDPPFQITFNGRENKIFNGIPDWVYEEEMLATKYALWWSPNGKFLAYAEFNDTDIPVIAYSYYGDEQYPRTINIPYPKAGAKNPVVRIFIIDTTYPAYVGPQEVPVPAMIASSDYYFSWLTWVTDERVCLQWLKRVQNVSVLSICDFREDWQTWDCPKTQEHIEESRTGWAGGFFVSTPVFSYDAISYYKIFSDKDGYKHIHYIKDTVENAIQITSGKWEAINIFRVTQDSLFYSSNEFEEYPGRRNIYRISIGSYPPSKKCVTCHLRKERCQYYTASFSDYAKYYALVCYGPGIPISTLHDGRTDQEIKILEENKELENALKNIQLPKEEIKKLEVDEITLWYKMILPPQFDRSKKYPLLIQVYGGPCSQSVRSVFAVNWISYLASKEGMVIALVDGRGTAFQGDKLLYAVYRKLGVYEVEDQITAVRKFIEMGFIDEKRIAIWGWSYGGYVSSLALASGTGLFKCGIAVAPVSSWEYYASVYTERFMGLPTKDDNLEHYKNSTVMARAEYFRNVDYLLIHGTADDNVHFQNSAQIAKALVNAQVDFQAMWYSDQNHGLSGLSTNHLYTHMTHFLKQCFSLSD
Sequence of hFAP (M39-A757) (Q12884 39-757): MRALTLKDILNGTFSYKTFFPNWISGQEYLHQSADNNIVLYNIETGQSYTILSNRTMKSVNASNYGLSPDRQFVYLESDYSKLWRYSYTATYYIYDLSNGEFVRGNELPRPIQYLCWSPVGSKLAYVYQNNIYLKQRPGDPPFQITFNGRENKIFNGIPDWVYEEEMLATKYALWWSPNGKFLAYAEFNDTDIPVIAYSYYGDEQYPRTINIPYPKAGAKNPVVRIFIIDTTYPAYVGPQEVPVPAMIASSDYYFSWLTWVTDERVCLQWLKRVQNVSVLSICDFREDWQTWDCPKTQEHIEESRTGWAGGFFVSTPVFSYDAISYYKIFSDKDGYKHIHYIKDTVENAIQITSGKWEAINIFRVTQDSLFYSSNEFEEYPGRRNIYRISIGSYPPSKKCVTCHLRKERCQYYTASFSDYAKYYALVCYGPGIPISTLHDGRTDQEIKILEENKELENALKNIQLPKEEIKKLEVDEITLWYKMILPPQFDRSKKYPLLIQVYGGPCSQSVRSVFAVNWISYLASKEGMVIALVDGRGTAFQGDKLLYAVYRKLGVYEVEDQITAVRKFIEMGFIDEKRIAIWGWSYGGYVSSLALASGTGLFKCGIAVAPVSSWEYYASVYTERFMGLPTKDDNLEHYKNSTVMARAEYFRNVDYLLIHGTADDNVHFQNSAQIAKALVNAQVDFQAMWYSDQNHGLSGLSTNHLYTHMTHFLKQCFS
Sequence of FAP (Mus musculus (Mouse), UniProt P97321) (P97321 24-761): as the sequence (P97321 24-761) above
Sequence of human dipeptidylpeptidase 8 (hDPP8) (Q6V1X1 whole entry): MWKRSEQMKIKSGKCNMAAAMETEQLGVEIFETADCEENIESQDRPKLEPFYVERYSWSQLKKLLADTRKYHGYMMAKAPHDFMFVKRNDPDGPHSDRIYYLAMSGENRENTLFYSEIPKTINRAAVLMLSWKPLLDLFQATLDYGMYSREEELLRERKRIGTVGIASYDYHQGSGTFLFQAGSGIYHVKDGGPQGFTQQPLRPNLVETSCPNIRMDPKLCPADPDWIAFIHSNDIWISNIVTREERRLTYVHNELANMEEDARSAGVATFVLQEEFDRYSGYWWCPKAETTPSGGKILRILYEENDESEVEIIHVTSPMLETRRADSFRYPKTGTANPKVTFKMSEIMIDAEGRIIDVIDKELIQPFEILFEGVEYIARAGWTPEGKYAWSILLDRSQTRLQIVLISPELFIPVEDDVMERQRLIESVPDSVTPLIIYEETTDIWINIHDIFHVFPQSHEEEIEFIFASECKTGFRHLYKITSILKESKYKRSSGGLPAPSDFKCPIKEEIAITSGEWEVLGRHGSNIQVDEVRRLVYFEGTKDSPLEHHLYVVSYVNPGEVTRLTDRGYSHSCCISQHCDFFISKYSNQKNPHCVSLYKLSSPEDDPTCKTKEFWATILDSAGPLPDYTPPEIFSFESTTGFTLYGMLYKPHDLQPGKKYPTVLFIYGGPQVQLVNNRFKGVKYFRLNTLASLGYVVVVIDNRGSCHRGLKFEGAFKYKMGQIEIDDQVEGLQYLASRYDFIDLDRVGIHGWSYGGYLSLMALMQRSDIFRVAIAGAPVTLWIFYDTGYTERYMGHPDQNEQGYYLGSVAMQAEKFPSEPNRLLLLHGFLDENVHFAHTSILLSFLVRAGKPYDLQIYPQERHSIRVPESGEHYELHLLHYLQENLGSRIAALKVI
Sequence of human dipeptidylpeptidase 9 (hDPP9) (Q86TI2 whole entry): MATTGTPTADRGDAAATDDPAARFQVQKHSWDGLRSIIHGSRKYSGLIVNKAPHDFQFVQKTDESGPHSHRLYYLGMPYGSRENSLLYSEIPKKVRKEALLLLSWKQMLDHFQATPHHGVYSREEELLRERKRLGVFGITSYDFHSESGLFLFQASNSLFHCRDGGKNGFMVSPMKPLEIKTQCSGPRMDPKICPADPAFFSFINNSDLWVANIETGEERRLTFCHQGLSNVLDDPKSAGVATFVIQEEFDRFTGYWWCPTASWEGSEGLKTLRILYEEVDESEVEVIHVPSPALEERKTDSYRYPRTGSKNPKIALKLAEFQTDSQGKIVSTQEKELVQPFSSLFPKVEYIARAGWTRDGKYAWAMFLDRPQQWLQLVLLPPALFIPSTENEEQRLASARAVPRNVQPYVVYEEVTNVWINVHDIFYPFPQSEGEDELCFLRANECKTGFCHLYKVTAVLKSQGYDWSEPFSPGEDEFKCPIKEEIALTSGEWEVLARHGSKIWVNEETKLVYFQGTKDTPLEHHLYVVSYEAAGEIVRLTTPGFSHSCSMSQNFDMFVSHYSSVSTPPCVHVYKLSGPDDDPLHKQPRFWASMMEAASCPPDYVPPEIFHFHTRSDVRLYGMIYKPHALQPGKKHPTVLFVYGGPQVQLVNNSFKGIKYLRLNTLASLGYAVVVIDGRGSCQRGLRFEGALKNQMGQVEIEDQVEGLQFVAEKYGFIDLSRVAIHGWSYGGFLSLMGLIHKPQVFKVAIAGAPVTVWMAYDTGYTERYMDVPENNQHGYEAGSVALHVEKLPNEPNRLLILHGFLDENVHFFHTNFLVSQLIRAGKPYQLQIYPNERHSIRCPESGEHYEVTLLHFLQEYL
Sequence of FAP (Homo sapiens (Human), UniProt Q12884) (Q12884 38-760): as the sequence (Q12884 38-760) above
Experimental for physchem: Kinetic solubility was measured as described in Comput Aided Mol Des 2015, 29, 795.

Regarding `N#C[C@@H]1CSCN1C(=O)CNC(=O)c1ccnc2ccc(N3CC4CC(C3)O4)cc12` [Example 77, 6-(6-Oxa-3-azabicyclo[3.1.1]heptan-3-yl)-N-(2-((R)-4-cyanothiazolidin-3-yl)-2-oxoethyl)quinoline-4-carboxamide], on hFAP (M39-A757), the “hFAP Binding assay k(off)” value is 0.000066 s⁻¹, the “hFAP Binding assay k(on)” value turned out to be 4800000 M⁻¹ s⁻¹ and binding was characterised by a dissociation constant (Kd) of 0.014 nM. Besides, the IC50 in data set [1] is 470 nM. In “in vitro [2]”, this compound showed a microsomal CLint of 7.1 µL/min/mg. Also, inhibition in data set [3] was half-maximal at 0.051 nM (IC50). For the same compound, in the data set “in vitro [4]”, the Papp A→B stood at 0.57 ×10⁻⁶ cm/s, the Papp B→A amounted to 16 ×10⁻⁶ cm/s and the efflux ratio was determined as 29. In the data set “physchem”, the solubility is 850 µM (≈ 360 µg/mL). Besides, in [5], the “rHep CLint” value amounted to 5.4 μL/min/1E6.

For the compound `N#C[C@@H]1CSCN1C(=O)CNC(=O)c1ccnc2ccc(N3C4CCCC3COC4)cc12` [Example 86, 6-(3-Oxa-9-azabicyclo[3.3.1]nonan-9-yl)-N-(2-((R)-4-cyanothiazolidin-3-yl)-2-oxoethyl)quinoline-4-carboxamide], at hFAP (M39-A757), the “hFAP Binding assay k(off)” value came to 0.000058 s⁻¹, the “hFAP Binding assay k(on)” value is 730000 M⁻¹ s⁻¹ and the Kd is 0.081 nM. Besides, the IC50 in data set [1] worked out at 360 nM. For the same compound, in “in vitro [2]”, the microsomal CLint was 160 µL/min/mg. In addition, it took 0.074 nM to reach half-maximal inhibition in [3] (IC50). The solubility in “physchem” came out at 640 µM (≈ 289 µg/mL). Besides, the “rHep CLint” value in data set [5] is reported as 44 μL/min/1E6.

In the case of `C[C@@H]1CN(c2ccc3nccc(C(=O)NCC(=O)N4CSC[C@H]4C#N)c3c2)C[C@@H](C)O1` [Example 70, N-(2-((R)-4-Cyanothiazolidin-3-yl)-2-oxoethyl)-6-((2R,6R)-2,6-dimethylmorpholino)-quinoline-4-carboxamide], the “hFAP Binding assay k(off)” value on hFAP (M39-A757) worked out at 0.00014 s⁻¹. Besides, the “hFAP Binding assay k(on)” value on hFAP (M39-A757) was found to be 5400000 M⁻¹ s⁻¹. In addition, the IC50 in [1] was 1100 nM; in data set [6] it was 1400 nM; at FAP [7], 0.3 nM; in [8], greater than 100000 nM; in [9], 4700 nM.

For `N#C[C@@H]1CSCN1C(=O)CNC(=O)c1ccnc2ccc(N3C4CCC3CC4)cc12` [Example 209, (R)-6-(7-Azabicyclo[2.2.1]heptan-7-yl)-N-(2-(4-cyanothiazolidin-3-yl)-2-oxoethyl)quinoline-4-carboxamide], on hFAP (M39-A757), the “hFAP Binding assay k(off)” value was found to be 0.000042 s⁻¹, the “hFAP Binding assay k(on)” value worked out at 3200000 M⁻¹ s⁻¹ and the equilibrium dissociation constant (Kd) was determined as 0.02 nM. In addition, in data set [1], the half-maximal inhibitory concentration (IC50) turned out to be 540 nM. For the same compound, the microsomal CLint in “in vitro [2]” is 170 µL/min/mg. In data set [3], the IC50 turned out to be 0.15 nM. In addition, half-maximal inhibition against FAP [10] (IC50) required 0.44 nM. The same compound displayed a solubility in “physchem” of 970 µM (≈ 409 µg/mL). Also, in data set [5], the “rHep CLint” value was determined as 52 μL/min/1E6.

Regarding `C[C@@H]1CN(c2ccc3nccc(C(=O)NCC(=O)N4CSC[C@H]4C#N)c3c2)C[C@H](C)O1` [Example 68, N-(2-((R)-4-Cyanothiazolidin-3-yl)-2-oxoethyl)-6-((2R,6S)-2,6-dimethylmorpholino)-quinoline-4-carboxamide], the “hFAP Binding assay k(off)” value on hFAP (M39-A757) was 0.00011 s⁻¹. The “hFAP Binding assay k(on)” value on hFAP (M39-A757) amounted to 1000000 M⁻¹ s⁻¹. Besides, the IC50 was 1700 nM in [1]; 1500 nM in [6]; 0.5 nM against FAP [7]; greater than 100000 nM in data set [8]; 19 nM in data set [11]; 6600 nM in [9].
